Source: patent EP1388586A2, “Identification of broadly reactive DR restricted epitopes” (priority 1998, dated 1999)
Ends that are not written are not given here.

Biological target: T1, DRB1*0301 (DR3w17) (Homo sapiens, UniProt P01903+P01911, A100K/A102G/A103R/A169T/F55Y/I96L/K41T/L162R/M171V/P40S/Q125H/Q178H/Q39Y/R42S/S66N/T106N/T262R/W38E/Y61H)
T1 construct: used as sources of human HLA class II molecules; endogenous in cells; host or cells: MAT (EBV-transformed homozygous B cell line)
Assay: Class II peptide-binding assay, DR3 (pH 4.5);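 also: unlabeled peptide competing with a radiolabeled probe peptide for binding to affinity-purified HLA-DR3, IC50 regarded as an approximation of Kd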
Conditions: Table VIII; values in parentheses read as lower bounds; read-out: In IC50 Format DR3
Method: Class II peptide-binding assays. […] These assays were chosen as to be representative of the most common DR alleles.
In appropriate stoichiometric conditions, the IC50 of an unlabeled test peptide to the purified DR is a reasonable approximation of the affinity of interaction (Kd). Peptides were tested in two to four completely independent experiments. […] Final detergent concentration in the incubation mixture was 0.05% Nonidet P-40. Assays were performed at pH 7.0 with the exception of DR3, which was performed at pH 4.5, and DRw53, which was performed at pH 5.0.
All subsequent inhibition and direct binding assays were the performed using these class II concentrations.

T1 sequence (P01903 26-254, other chains not shown): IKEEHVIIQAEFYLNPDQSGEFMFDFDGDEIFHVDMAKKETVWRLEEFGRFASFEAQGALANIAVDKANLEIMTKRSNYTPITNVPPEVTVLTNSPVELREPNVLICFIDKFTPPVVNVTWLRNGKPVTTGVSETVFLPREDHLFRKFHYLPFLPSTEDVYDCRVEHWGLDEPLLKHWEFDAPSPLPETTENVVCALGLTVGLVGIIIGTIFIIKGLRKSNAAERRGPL

SLSFLQDIQEVQGYV [Peptide 39.0339] showed an IC50 of 5.77 µM.

Same assay, conditions: read-out: In IC50 Format DR3 nM; Table VIII; values in parentheses read as lower bounds

First: AIKVLRENTSPKANK [Peptide 39.0362]
Second: DLTLGLEPSEEEAPR [Peptide 39.0377]
The IC50 of the first is lower: 40 µM for the first, greater than 120 µM for the second. The first is the more potent here.

DNLYYWDQDPPERGA [Peptide 39.0383] and DTILWKDIFHKNNQL [Peptide 39.0342] cannot be ordered by IC50: greater than 120 µM for the first, greater than 111 µM for the second.

ETEYHADGGKVPIKW [Peptide 39.0367] and FVVIQNEDLGPASPL [Peptide 39.0372] cannot be ordered by IC50: greater than 111 µM for the first, greater than 120 µM for the second.

Going from GDLVDAEEYLVPQQG [Peptide 39.0375] to KNGVVKDVFAFGGAV [Peptide 39.0381], the IC50 rises from 12 µM to greater than 120 µM.

LVTYNTDTFESMPNP [Peptide 39.0345] and MRRLLQETELVEPLT [Peptide 39.0360] cannot be ordered by IC50: greater than 111 µM for the first, greater than 111 µM for the second.

Compared with NKEILDEAYVMAGVG [Peptide 39.0363], NQEVTAEDGTQRCEK [Peptide 39.0347] is higher in IC50: 63.8 µM for the first, greater than 111 µM for the second. The first is the more potent here.

Compared with QGFFCPDPAPGAGGM [Peptide 39.0376], SDVFDGDLGMGAAKG [Peptide 39.0378] is higher in IC50: 66.7 µM for the first, greater than 120 µM for the second. The first is the more potent here.

SLAFLPESFDGDPAS [Peptide 39.0349] and TVPLPSETDGYVAPL [Peptide 39.0380] cannot be ordered by IC50: greater than 111 µM for the first, greater than 120 µM for the second.

Same assay, conditions: read-out: In IC50 Format DR3; Table VIII

First: CC(C)C[C@H](NC(=O)[C@H](CCC(N)=O)NC(=O)[C@@H](NC(=O)[C@@H]1CCCN1)C(C)C)C(=O)N[C@@H](Cc1c[nH]c2ccccc12)C(=O)N[C@H](C(=O)N[C@@H](CC(=O)O)C(=O)N[C@@H](CO)C(=O)N[C@H](C(=O)N1CCC[C@H]1C(=O)N1CCC[C@H]1C(=O)N1CCC[C@H]1C(=O)NCC(=O)N[C@H](C(=O)N[C@@H](CCCNC(=N)N)C(=O)O)[C@@H](C)O)[C@@H](C)O)C(C)C [Peptide 39.0413]
Second: CC[C@H](C)[C@H](NC(=O)[C@H](CCC(N)=O)NC(=O)[C@H](CC(C)C)NC(=O)[C@@H](NC(=O)[C@H](Cc1ccccc1)NC(=O)[C@H](Cc1ccc(O)cc1)NC(=O)[C@H](CCC(=O)O)NC(=O)CNC(=O)[C@H](CC(=O)O)NC(=O)[C@H](CC(C)C)NC(=O)[C@@H]1CCCN1C(=O)[C@H](CCCCN)NC(=O)[C@@H](N)CCCCN)[C@@H](C)O)C(=O)N[C@@H](CCCNC(=N)N)C(=O)NCC(=O)O [Peptide 39.0422]
The IC50 of the first is lower: 10 µM for the first, greater than 120 µM for the second.

Going from `CC[C@H](C)[C@H](NC(=O)[C@H](C)NC(=O)[C@@H](N)CCSC)C(=O)N[C@@H](Cc1ccc(O)cc1)C(=O)N[C@@H](CCCCN)C(=O)N[C@@H](CCC(N)=O)C(=O)N[C@@H](CO)C(=O)N[C@@H](CCC(N)=O)C(=O)N[C@@H](Cc1c[nH]cn1)C(=O)N[C@@H](CCSC)C(=O)N[C@H](C(=O)N[C@@H](CCC(=O)O)C(=O)N[C@H](C(=O)N[C@H](C(=O)N[C@@H](CCCNC(=N)N)C(=O)O)C(C)C)C(C)C)[C@@H](C)O` [Peptide 39.0414] to `CC(C)C[C@H](NC(=O)[C@H](CC(N)=O)NC(=O)CNC(=O)[C@@H](N)CCC(=O)O)C(=O)N[C@@H](CCCNC(=N)N)C(=O)N[C@H](C(=O)N[C@@H](CCC(=O)O)C(=O)N[C@@H](Cc1ccc(O)cc1)C(=O)N[C@@H](CC(C)C)C(=O)N[C@@H](CC(=O)O)C(=O)N[C@@H](CC(=O)O)C(=O)N[C@@H](CCCNC(=N)N)C(=O)N[C@@H](CC(N)=O)C(=O)N[C@H](C(=O)N[C@@H](Cc1ccccc1)C(=O)O)[C@@H](C)O)C(C)C` [Peptide 39.0417], the IC50 falls from greater than 120 µM to 76.9 µM.

Work on `CC[C@H](C)[C@H](NC(=O)[C@@H](NC(=O)[C@@H](N)CC(C)C)[C@@H](C)O)C(=O)N[C@H](C(=O)N[C@H](C(=O)N[C@@H](CC(C)C)C(=O)N[C@@H](CCC(=O)O)C(=O)N[C@@H](CC(=O)O)C(=O)N[C@@H](CO)C(=O)N[C@@H](CO)C(=O)NCC(=O)N[C@@H](CC(N)=O)C(=O)N[C@@H](CC(C)C)C(=O)N[C@@H](CC(C)C)C(=O)NCC(=O)O)[C@@H](C)O)[C@@H](C)CC` [Peptide 39.0421] yielded an IC50 of 100 µM.
